ChEMBL document CHEMBL1687773 (Antimicrob Agents Chemother, 2010)
Activity calls are given as the source filed them. The rule behind the calls is not given here.

What was measured:
[1] = biological target: Beta-1 adrenergic receptor (Homo sapiens) (UniProt P08588); assay: Inhibition of human adrenergic beta1 receptor at up to 10 uM
[2] = system: Human immunodeficiency virus 1; assay: Antiviral activity against HIV1 NL4-3 harboring reverse transcriptase V108I, H221Y, F227F/L, M230M/I mutant infected in human SupT1 cells derived from 11 viral passages with lersivirine assessed as inhibition of viral replication after 21 days relative to drug sensitive HIV1 NL4-3; assay type: functional, SUP-T1
[3] = system: Human immunodeficiency virus 1; assay type: functional, organism-based; details: NL4-3, HeLaP4
[4] = system: Human immunodeficiency virus 1; assay: Antiviral activity against HIV1 NL4-3 harboring reverse transcriptase E138K mutant infected in human HeLaP4 cells assessed as inhibition of viral replication after 5 days by beta-galactosidase reporter assay; assay type: functional, organism-based
[5] = system: Human immunodeficiency virus 1; assay: Antiviral activity against HIV1 NL4-3 harboring reverse transcriptase K103N mutant infected in human HeLaP4 cells assessed as inhibition of viral replication after 5 days by beta-galactosidase reporter assay; assay type: functional, organism-based; details: Human immunodeficiency virus 1, NL4-3, HeLaP4, 120 h
[6] = biological target: Adrenergic receptor alpha-1 (Homo sapiens) (UniProt P35348+P25100+P35368); assay: Inhibition of human adrenergic alpha1 receptor at up to 10 uM
[7] = biological target: 5-hydroxytryptamine receptor 1B (Homo sapiens) (UniProt P28222); assay: Inhibition of human 5-HT1B receptor at up to 10 uM
[8] = system: Human immunodeficiency virus type 1 reverse transcriptase (Human immunodeficiency virus 1), Q72547 [Y188C]; assay: Inhibition of HIV1 histidine-tagged reverse transcriptase Y188C mutant activity by primer extension assay
Homo sapiens [9] = species on record: Homo sapiens; assay: Inhibition of human L-type calcium channel verapamil binding site at up to 10 uM
[10] = biological target: T1, Human immunodeficiency virus type 1 reverse transcriptase (Human immunodeficiency virus 1, UniProt Q72547); assay: Inhibition of HIV1 reverse transcriptase activity by primer extension assay
Homo sapiens [11] = species on record: Homo sapiens; assay: Inhibition of human central benzodiazepine receptor at up to 10 uM
Homo sapiens [12] = species on record: Homo sapiens; assay: Inhibition of human Phosphodiesterase 3 at up to 10 uM
[13] = system: Human immunodeficiency virus type 1 reverse transcriptase (Human immunodeficiency virus 1), Q72547 [P236L]; assay: Inhibition of HIV1 histidine-tagged reverse transcriptase P236L mutant activity by primer extension assay
[14] = biological target: Opioid receptors; mu/kappa/delta (Homo sapiens) (UniProt P41145+P41143+P35372); assay: Inhibition of human non-selective opioid receptor at up to 10 uM
[15] = system: Human immunodeficiency virus 1; assay: Antiviral activity against HIV1 NL4-3 harboring reverse transcriptase V108I mutant infected in human HeLaP4 cells assessed as inhibition of viral replication after 5 days by beta-galactosidase reporter assay; assay type: functional, organism-based
[16] = biological target: T1, Human immunodeficiency virus type 1 reverse transcriptase; assay: Mixed non-competitive inhibition of HIV1 reverse transcriptase activity
[17] = system: Human immunodeficiency virus 1; assay: Antiviral activity against HIV1 NL4-3 harboring reverse transcriptase V106A mutant infected in human HeLaP4 cells assessed as inhibition of viral replication after 5 days by beta-galactosidase reporter assay; assay type: functional, organism-based
[18] = biological target: Adenosine receptor A1 (Homo sapiens) (UniProt P30542); assay: Inhibition of human adenosine A1 receptor at up to 10 uM
[19] = biological target: Glutamate [NMDA] receptor (Homo sapiens) (UniProt Q05586+Q12879+Q13224+O15399+O60391+Q14957+Q8TCU5); assay: Inhibition of human NMDA receptor at up to 10 uM
[20] = biological target: Adrenergic receptor alpha-2 (Homo sapiens) (UniProt P08913+P18825+P18089); assay: Inhibition of human adrenergic alpha2 receptor at up to 10 uM
[21] = system: Human immunodeficiency virus 1; assay: Ratio of EC50 for wild type HIV1 NL4-3 to EC50 for HIV1 NL4-3 harboring reverse transcriptase V108I mutant; assay type: functional
Homo sapiens [22] = species on record: Homo sapiens; assay: Inhibition of human L-type calcium channel diltiazem binding site at up to 10 uM
[23] = system: Human immunodeficiency virus 1; assay: Antiviral activity against HIV1 NL4-3 harboring reverse transcriptase P236L mutant infected in human HeLaP4 cells assessed as inhibition of viral replication after 5 days by beta-galactosidase reporter assay; assay type: functional, organism-based
[24] = system: Human immunodeficiency virus 1; assay: Antiviral activity against wild type HIV1 NL4-3 infected in human HeLaP4 cells assessed as inhibition of viral replication after 5 days by beta-galactosidase reporter assay; assay type: functional, organism-based; details: Human immunodeficiency virus 1, NL4-3, HeLaP4, 120 h
[25] = Inhibition of human phosphodiesterase 4
[26] = system: Human immunodeficiency virus 1; assay: Antiviral activity against HIV1 NL4-3 harboring reverse transcriptase K101E mutant infected in human HeLaP4 cells assessed as inhibition of viral replication after 5 days by beta-galactosidase reporter assay; assay type: functional, organism-based
[27] = system: Human immunodeficiency virus 1; assay: Antiviral activity against HIV1 NL4-3 harboring reverse transcriptase Y188C mutant infected in human HeLaP4 cells assessed as inhibition of viral replication after 5 days by beta-galactosidase reporter assay; assay type: functional, organism-based
[28] = biological target: Amine oxidase [flavin-containing] A (Homo sapiens, UniProt P21397); assay: Inhibition of human MAO-A at up to 10 uM
[29] = biological target: Histamine H1 receptor (Homo sapiens) (UniProt P35367); assay: Inhibition of human histamine H1 receptor at up to 10 uM
[30] = system: Human immunodeficiency virus type 1 reverse transcriptase (Human immunodeficiency virus 1), Q72547 [Y181I]; assay: Inhibition of HIV1 histidine-tagged reverse transcriptase Y181I mutant activity by primer extension assay
[31] = Ratio of CC30 for human HeLaP4 cells to EC90 for HIV1
[32] = system: Human immunodeficiency virus 1; assay: Ratio of EC50 for wild type HIV1 NL4-3 to EC50 for HIV1 NL4-3 harboring reverse transcriptase L234I mutant; assay type: functional
[33] = biological target: 5-hydroxytryptamine receptor 1A (Homo sapiens) (UniProt P08908); assay: Inhibition of human 5-HT1A receptor at up to 10 uM
[34] = system: Human immunodeficiency virus 1; assay: Antiviral activity against HIV1 NL4-3 harboring reverse transcriptase V108I, E138K, F227F/L mutant infected in human SupT1 cells derived from 11 viral passages with lersivirine assessed as inhibition of viral replication after 21 days relative to drug sensitive HIV1 NL4-3; assay type: functional, SUP-T1
[35] = system: Human immunodeficiency virus 1; assay: Ratio of EC50 for wild type HIV1 NL4-3 to EC50 for HIV1 NL4-3 harboring reverse transcriptase Y181I, Y188L mutant; assay type: functional
[36] = system: Human immunodeficiency virus 1; assay: Antiviral activity against HIV1 NL4-3 harboring reverse transcriptase Y181I mutant infected in human HeLaP4 cells assessed as inhibition of viral replication after 5 days by beta-galactosidase reporter assay; assay type: functional, organism-based
[37] = biological target: Acetylcholinesterase (Homo sapiens) (UniProt P22303); assay: Inhibition of human acetylcholinesterase at up to 10 uM
[38] = biological target: D(1A) dopamine receptor (Homo sapiens) (UniProt P21728); assay: Inhibition of human dopamine D1 receptor at up to 10 uM
[39] = biological target: 5-hydroxytryptamine receptor 2A (Homo sapiens) (UniProt P28223); assay: Inhibition of human 5-HT2A receptor at up to 10 uM
[40] = system: Human immunodeficiency virus type 1 reverse transcriptase (Human immunodeficiency virus 1), Q72547 [M184V]; assay: Inhibition of HIV1 histidine-tagged reverse transcriptase M184V mutant activity by primer extension assay

D(1A) dopamine receptor (Homo sapiens), sequence (P21728 whole entry): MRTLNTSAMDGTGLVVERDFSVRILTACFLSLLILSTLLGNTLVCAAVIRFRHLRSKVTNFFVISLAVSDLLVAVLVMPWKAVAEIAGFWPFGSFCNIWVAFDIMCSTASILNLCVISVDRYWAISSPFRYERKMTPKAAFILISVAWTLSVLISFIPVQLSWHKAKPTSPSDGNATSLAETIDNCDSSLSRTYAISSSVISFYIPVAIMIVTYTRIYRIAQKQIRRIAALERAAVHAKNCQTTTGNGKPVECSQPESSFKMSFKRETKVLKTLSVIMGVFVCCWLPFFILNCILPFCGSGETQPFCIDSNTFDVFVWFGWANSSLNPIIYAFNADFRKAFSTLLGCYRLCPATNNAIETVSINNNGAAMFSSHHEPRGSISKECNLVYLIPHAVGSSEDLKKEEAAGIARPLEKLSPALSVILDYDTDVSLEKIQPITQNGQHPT
Adenosine receptor A1 (Homo sapiens), sequence (P30542 whole entry): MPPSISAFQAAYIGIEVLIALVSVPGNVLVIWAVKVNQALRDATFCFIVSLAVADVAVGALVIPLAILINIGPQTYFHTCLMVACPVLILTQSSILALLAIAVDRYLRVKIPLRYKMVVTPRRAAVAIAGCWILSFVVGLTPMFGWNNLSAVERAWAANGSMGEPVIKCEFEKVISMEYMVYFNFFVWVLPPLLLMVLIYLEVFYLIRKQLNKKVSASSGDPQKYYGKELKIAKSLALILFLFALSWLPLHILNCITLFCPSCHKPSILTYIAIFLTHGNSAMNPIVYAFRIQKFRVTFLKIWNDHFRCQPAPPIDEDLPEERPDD
5-hydroxytryptamine receptor 1B (Homo sapiens), sequence (P28222 whole entry): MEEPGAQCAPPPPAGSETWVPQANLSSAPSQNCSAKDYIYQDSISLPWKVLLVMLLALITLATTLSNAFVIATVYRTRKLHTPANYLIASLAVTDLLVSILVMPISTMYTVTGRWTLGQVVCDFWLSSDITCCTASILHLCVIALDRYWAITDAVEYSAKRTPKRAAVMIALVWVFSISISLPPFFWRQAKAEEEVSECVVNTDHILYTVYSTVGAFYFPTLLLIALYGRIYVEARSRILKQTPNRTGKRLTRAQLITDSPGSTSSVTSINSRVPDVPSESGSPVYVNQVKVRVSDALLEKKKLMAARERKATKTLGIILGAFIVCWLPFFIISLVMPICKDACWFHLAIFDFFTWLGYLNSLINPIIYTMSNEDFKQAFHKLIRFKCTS
5-hydroxytryptamine receptor 1A (Homo sapiens), sequence (P08908 whole entry): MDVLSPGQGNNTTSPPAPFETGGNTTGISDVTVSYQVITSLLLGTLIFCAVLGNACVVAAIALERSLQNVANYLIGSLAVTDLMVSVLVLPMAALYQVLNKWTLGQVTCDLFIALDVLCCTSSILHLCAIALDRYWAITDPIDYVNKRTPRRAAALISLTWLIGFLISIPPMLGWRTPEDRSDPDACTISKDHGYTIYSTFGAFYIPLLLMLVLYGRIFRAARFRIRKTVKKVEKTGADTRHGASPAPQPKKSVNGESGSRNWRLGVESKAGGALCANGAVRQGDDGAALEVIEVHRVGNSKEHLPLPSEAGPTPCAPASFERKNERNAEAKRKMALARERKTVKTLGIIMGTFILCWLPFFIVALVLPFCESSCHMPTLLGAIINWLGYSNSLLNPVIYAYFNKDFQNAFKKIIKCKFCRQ
Opioid receptors; mu/kappa/delta (Homo sapiens), sequence (P35372 whole entry, looked up): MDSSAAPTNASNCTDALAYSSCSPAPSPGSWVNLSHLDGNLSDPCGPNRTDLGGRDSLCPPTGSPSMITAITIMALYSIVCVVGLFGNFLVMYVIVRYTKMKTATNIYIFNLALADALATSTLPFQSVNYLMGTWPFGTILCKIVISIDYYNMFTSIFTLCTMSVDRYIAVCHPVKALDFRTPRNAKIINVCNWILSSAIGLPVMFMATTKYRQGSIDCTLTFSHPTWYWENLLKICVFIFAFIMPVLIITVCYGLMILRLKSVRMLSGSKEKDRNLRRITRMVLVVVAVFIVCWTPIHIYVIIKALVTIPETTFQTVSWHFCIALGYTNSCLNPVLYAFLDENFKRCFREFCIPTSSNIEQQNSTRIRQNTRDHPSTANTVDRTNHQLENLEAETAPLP
Opioid receptors; mu/kappa/delta (Homo sapiens), sequence (P41143 whole entry, looked up): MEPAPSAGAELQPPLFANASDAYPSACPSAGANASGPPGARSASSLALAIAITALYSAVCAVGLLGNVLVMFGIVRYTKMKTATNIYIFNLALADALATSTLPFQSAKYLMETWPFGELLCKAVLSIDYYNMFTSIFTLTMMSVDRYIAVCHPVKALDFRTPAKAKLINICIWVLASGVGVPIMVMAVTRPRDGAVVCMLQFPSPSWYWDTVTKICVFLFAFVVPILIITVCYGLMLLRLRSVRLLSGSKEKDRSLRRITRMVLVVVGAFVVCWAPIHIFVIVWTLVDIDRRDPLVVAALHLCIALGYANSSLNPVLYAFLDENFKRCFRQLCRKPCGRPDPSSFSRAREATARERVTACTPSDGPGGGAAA
Opioid receptors; mu/kappa/delta (Homo sapiens), sequence (P41145 whole entry, looked up): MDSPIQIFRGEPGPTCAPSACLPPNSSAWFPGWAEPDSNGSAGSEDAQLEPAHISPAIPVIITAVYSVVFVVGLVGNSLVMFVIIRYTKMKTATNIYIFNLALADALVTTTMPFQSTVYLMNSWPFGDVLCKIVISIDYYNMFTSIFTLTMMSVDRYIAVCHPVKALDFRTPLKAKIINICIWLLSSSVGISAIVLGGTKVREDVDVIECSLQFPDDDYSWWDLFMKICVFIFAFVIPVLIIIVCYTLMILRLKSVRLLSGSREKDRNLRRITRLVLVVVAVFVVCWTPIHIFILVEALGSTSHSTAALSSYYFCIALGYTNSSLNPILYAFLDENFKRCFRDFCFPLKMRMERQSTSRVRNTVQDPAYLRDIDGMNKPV
Acetylcholinesterase (Homo sapiens), sequence (P22303 whole entry): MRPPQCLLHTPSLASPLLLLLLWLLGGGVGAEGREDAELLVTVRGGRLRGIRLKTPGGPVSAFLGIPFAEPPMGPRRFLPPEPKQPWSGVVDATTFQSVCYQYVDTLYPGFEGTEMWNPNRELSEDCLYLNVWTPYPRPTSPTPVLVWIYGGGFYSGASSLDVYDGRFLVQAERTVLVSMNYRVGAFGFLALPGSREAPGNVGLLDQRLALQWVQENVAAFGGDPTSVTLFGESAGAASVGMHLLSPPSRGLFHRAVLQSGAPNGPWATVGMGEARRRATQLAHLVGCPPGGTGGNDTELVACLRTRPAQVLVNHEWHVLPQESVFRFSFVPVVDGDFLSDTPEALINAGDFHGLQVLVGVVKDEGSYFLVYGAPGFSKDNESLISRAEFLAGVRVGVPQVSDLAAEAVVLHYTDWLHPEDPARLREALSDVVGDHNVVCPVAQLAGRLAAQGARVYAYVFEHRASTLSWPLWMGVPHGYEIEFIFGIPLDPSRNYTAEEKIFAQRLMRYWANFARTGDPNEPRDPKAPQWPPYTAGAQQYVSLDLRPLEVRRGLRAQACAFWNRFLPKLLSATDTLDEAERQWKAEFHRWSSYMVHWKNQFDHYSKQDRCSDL
5-hydroxytryptamine receptor 2A (Homo sapiens), sequence (P28223 whole entry): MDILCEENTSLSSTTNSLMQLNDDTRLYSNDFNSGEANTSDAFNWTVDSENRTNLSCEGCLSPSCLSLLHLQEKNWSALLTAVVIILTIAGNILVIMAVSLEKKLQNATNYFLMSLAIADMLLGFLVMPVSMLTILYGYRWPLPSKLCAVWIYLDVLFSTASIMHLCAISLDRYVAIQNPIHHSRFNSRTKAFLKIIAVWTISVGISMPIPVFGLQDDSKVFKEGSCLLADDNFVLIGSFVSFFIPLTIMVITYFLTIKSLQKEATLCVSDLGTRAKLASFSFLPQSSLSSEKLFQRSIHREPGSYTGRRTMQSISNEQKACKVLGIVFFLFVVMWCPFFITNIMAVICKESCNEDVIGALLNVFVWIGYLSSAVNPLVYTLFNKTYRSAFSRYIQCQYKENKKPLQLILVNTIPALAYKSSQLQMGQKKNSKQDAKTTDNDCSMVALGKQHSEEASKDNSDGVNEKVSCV
Beta-1 adrenergic receptor (Homo sapiens), sequence (P08588 whole entry, looked up): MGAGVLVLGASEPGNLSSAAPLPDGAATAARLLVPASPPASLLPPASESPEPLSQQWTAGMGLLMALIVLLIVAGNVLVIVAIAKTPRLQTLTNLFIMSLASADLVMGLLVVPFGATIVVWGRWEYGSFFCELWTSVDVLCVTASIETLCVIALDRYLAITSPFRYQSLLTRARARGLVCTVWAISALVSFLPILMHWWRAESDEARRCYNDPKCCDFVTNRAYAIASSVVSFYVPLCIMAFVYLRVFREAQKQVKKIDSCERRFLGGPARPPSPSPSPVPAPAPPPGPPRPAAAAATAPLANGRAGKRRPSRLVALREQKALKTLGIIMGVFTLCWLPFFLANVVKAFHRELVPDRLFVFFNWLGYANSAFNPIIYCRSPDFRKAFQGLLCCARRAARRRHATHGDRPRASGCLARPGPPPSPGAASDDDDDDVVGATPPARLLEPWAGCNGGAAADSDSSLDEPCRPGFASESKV
Amine oxidase [flavin-containing] A, sequence (P21397 whole entry): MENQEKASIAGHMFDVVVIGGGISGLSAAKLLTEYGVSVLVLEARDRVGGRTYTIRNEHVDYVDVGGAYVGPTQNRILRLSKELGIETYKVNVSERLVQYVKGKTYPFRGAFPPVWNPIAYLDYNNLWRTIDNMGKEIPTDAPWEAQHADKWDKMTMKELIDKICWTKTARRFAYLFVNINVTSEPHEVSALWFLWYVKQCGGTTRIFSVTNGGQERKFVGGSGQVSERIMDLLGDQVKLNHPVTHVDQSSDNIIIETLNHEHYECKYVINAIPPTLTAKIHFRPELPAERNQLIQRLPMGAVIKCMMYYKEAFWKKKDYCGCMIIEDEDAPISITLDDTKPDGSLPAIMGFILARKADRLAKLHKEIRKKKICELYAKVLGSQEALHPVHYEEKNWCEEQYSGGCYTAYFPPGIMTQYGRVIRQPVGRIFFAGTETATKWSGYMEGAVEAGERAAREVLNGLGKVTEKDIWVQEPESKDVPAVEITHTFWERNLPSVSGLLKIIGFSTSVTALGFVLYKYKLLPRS

CCc1nn(CCO)c(CC)c1Oc1cc(C#N)cc(C#N)c1 [LERSIVIRINE]
inhibition [1]: inactive
fold change (FC) [2]: 60.5
inhibition [3]: Active
inhibition [4]: Active
EC50 [5]: 7.05 nM
inhibition [6]: inactive
inhibition [7]: inactive
inhibition [8]: Active
inhibition (Homo sapiens [9]): inactive
IC50 [10]: 118 nM
inhibition (Homo sapiens [11]): inactive
inhibition (Homo sapiens [12]): inactive
inhibition [13]: Active
inhibition [14]: inactive
inhibition [15]: Active
Ki [16]: 117 nM
inhibition [17]: Active
inhibition [18]: inactive
inhibition [19]: inactive
inhibition [20]: inactive
Ratio EC50 [21]: 10
inhibition (Homo sapiens [22]): inactive
inhibition [23]: Active
EC50 [24]: 3.96 nM
IC50 [25]: 3000 nM
inhibition [26]: Active
inhibition [27]: Active
inhibition (INH) [28]: Not Active
inhibition [29]: inactive
inhibition [30]: Active
Ratio [31]: >7092
Ratio EC50 [32]: 20
inhibition [33]: inactive
fold change (FC) [34]: 143
Ratio EC50 [35]: 65
inhibition [36]: Active
inhibition [37]: inactive
inhibition [38]: inactive
inhibition [39]: inactive
inhibition [40]: Active
